Assays:
Assay type in all cases: in vivo
[1] = system: Plutella xylostella (Diamond Back Moth); experiment: Plutella xylostella, artificial diet MTP test; settings: 144 h, 200 ppm (concentration in well 18 ppm), L2 larvae, 6 days
Procedure: 24-well microtiter plate (MTP) with artificial diet was treated with test solutions at an application rate of 200 ppm (concentration in well 18 ppm) by pipetting. After drying, the MTP's were infested with L2 larvae (7-12 per well). After an incubation period of 6 days, samples were checked for larval mortality and growth regulation. The following compound gave at least 80% mortality of Plutella xylostella: 1, 2, 3, 4, 5, 6, 7, 8, 9, 10, 11, 12, 13, 14, 15, 16, 17, 18, 19, 20, 21, 22, 23, 24, 25, 26, 27, 28, 29, 30, 31, 32, 33, 34, 35, 36, 37, 38, 39, 40, 41, 42, 43, 44, 45, 46, 47, 48, 49, 50.

[2] = system: Spodoptera littoralis (Egyptian Cotton Leaf Worm); experiment: Spodoptera littoralis, agar / lettuce root uptake test; settings: 144 h, mixed with agar, uptake by lettuce roots, mortality 6 days after infestation
Description: Test compounds were applied by pipette into 24 well plates and mixed with agar. Application rate: 12.5 ppm. Lettuce seeds were placed on the agar and the multi well plate is closed by another plate which contains also agar. After 7 days the roots have absorbed the compound and the lettuce has grown into the lid plate. The lettuce leafs were now cut off into the lid plate. Spodoptera eggs were pipetted through a plastic stencil on a humid gel blotting paper and the plate closed with it. The samples are checked for mortality 6 days after infestation.

[3] = system: Tetranychus urticae (Two-Spotted Spider Mite); experiment: Tetranychus urticae, bean leaf disc spray test; settings: foliar, 192 h, sprayed bean leaf discs, mite populations of mixed ages, 8 days
Description: Bean leaf discs on agar in 24-well microtiter plates were sprayed with test solutions at an application rate of 200 ppm. After drying, the leaf discs are infested with mite populations of mixed ages. 8 days later, discs were checked for mortality.

[4] = system: Spodoptera littoralis (Egyptian Cotton Leafworm); experiment: Spodoptera littoralis, cotton leaf disc spray test; settings: foliar, 72 h, sprayed cotton leaf discs, L1 larvae, 3 days after treatment
Description: Cotton leaf discs were placed on agar in a 24-well microtiter plate and sprayed with test solutions at an application rate of 200 ppm. After drying, the leaf discs were infested with 5 L1 larvae. The samples were checked for mortality 3 days after treatment (DAT).

[5] = system: Diabrotica balteata (Corn Root Worm); experiment: Diabrotica balteata, artificial diet MTP test; settings: 120 h, 200 ppm (concentration in well 18 ppm), L2 larvae, larval mortality after 5 days
Procedure: A 24-well microtiter plate (MTP) with artificial diet was treated with test solutions at an application rate of 200 ppm (concentration in well 18 ppm) by pipetting. After drying, the MTP's were infested with L2 larvae (6-10 per well). After an incubation period of 5 days, samples were checked for larval mortality The following compound gave at least 80% control of Diabrotica balteata: 1, 2, 3, 4, 5, 6, 7, 8, 9, 10, 11, 12, 13, 14, 15, 16, 17, 18, 19, 20, 21, 22, 23, 24, 25, 26, 27, 28, 29, 30, 31, 32, 33, 34, 35, 36, 37, 38, 39, 40, 41, 42, 43, 44, 45, 46, 47, 48, 49, 50, 51.

[6] = system: Myzus persicae (Green Peach Aphid); experiment: Myzus persicae, sucrose solution / Parafilm test; settings: 120 h, mixed with sucrose solution under Parafilm, mortality 5 days after infestation
Description: Test compounds were applied by pipette into 24 well plates and mixed with Sucrose solution. Application rate: 12.5 ppm. The plates were closed with a stretched Parafilm. A plastic stencil with 24 holes is placed onto the plate and infested pea seedlings were placed directly on the Parafilm. The infested plate is closed with a gel blotting paper and another plastic stencil and then turned upside down. 5 days after infestation the samples were checked on mortality.

[7] = system: Myzus persicae (Green Peach Aphid); experiment: Myzus persicae, sunflower leaf disc spray test; settings: foliar, 144 h, sprayed sunflower leaf discs, aphid population of mixed ages, mortality after 6 DAT
Procedure: Sunflower leaf discs were placed on agar in a 24-well microtiter plate and sprayed with test solutions at an application rate of 200 ppm. After drying, the leaf discs were infested with an aphid population of mixed ages. After an incubation period of 6 DAT, samples were checked for mortality.

[8] = system: Thrips tabaci (Onion Thrips); experiment: Thrips tabaci, sunflower leaf disc spray test; settings: foliar, 168 h, sprayed sunflower leaf discs, mortality after 7 days

CCc1cc(C(F)(C(F)(F)F)C(F)(F)Cl)cc(Br)c1NC(=O)c1cccc(N(CC)C(=O)c2ccc[n+]([O-])c2)c1OC (stereo not drawn) [Compound 50]
≥ 80%: mortality at 200 ppm [1] | pest or weed control at 12.5 ppm [2] | mortality at 200 ppm [3] | mortality at 200 ppm [4] | pest or weed control at 200 ppm [5] | pest or weed control at 12.5 ppm [6] | pest or weed control at 200 ppm [7] | pest or weed control at 200 ppm [8]

CCN(C(=O)c1ccncc1)c1cccc(C(=O)Nc2c(Br)cc(C(F)(C(F)(F)F)C(F)(F)Cl)cc2OC(F)F)c1OC (stereo not drawn) [Compound 36, N-[3-[[2-bromo-4-[1-[chloro(difluoro)methyl]-1,2,2,2-tetrafluoro-ethyl]-6-(difluoromethoxy)phenyl]carbamoyl]-2-methoxy-phenyl]-N-ethyl-pyridine-4-carboxamide]
≥ 80%: mortality at 200 ppm [1] | pest or weed control at 12.5 ppm [2] | mortality at 200 ppm [3] | mortality at 200 ppm [4] | pest or weed control at 200 ppm [5] | pest or weed control at 12.5 ppm [6] | pest or weed control at 200 ppm [7] | pest or weed control at 200 ppm [8]

CCN(C(=O)c1ccncc1)c1cccc(C(=O)Nc2c(Cl)cc(C(F)(C(F)(F)F)C(F)(F)Br)cc2Br)c1OC (stereo not drawn) [Compound 2, N-[3-[[2-bromo-4-[1-[bromo(difluoro)methyl]-1,2,2,2-tetrafluoro-ethyl]-6-chloro-phenyl]carbamoyl]-2-methoxy-phenyl]-N-ethyl-pyridine-4-carboxamide]
≥ 80%: mortality at 200 ppm [1] | pest or weed control at 12.5 ppm [2] | mortality at 200 ppm [3] | mortality at 200 ppm [4] | pest or weed control at 200 ppm [5] | pest or weed control at 12.5 ppm [6] | pest or weed control at 200 ppm [7] | pest or weed control at 200 ppm [8]

CCc1cc(C(F)(C(F)(F)F)C(F)(F)Cl)cc(Br)c1NC(=O)c1cccc(NC(=O)c2cc[n+]([O-])cc2)c1F (stereo not drawn) [Compound 27]
≥ 80%: mortality at 200 ppm [1] | mortality at 200 ppm [3] | mortality at 200 ppm [4] | pest or weed control at 200 ppm [5] | pest or weed control at 12.5 ppm [6] | pest or weed control at 200 ppm [7] | pest or weed control at 200 ppm [8]

CCc1cc(C(F)(C(F)(F)F)C(F)(F)Cl)cc(Br)c1NC(=O)c1cccc(NC(=O)c2ccc[n+]([O-])c2)c1OC (stereo not drawn) [Compound 30]
≥ 80%: mortality at 200 ppm [1] | mortality at 200 ppm [3] | mortality at 200 ppm [4] | pest or weed control at 200 ppm [5] | pest or weed control at 12.5 ppm [6] | pest or weed control at 200 ppm [7] | pest or weed control at 200 ppm [8]

CCc1cc(C(F)(C(F)(F)F)C(F)(F)Cl)cc(Br)c1NC(=O)c1cccc(N(CC)C(=O)c2ccc(C#N)cc2)c1OC (stereo not drawn) [Compound 34]
≥ 80%: mortality at 200 ppm [1] | mortality at 200 ppm [3] | mortality at 200 ppm [4] | pest or weed control at 200 ppm [5] | pest or weed control at 12.5 ppm [6] | pest or weed control at 200 ppm [7] | pest or weed control at 200 ppm [8]
